Reference: US20220170119A1, “Signaling Pathway of Cannabidiol (CBD) for Prevention and Treatment of COVID-19” (Hemix Biotech Limited, priority 2020, published 2022)

Assays:
Covid-19 = conditions: human, in vivo; cited from earlier work
wild type MEFs = assay: Proliferation rate (population doubling level) of wild type MEFs; assay type: cell-based, mouse
Description: (§1) In the step of determining cells' proliferation rate and the optimal concentration of molecules, the primary mouse embryonic fibroblasts (MEFs) at passage 3 were counted by using LUNA-II Automated Cell Counter. 1.0×10^5 cells were seeded to a well of 6-well plate. The cells were treated with DMSO as control, 10 μM or 50 μM CBD.
(§2) Referring to FIG. 2, after 4-day and 8-day treatment, the cells were counted again using automated cell counter. The population doubling level (PDL), which reflects the proliferation rate of cells, was calculated by the formula: n=3.32 (log UCY−log I)+X, where n=the PDL number, UCY=the cell yield at that time point, I=the initial cell number, and X=the doubling level of the cells used to initiate the subculture being quantitated.

Lamin A 609 MEFs = assay: Proliferation rate (population doubling level) of Lamin A 609 MEFs; assay type: cell-based, mouse
Description: as §1, §2

TRIB3 [1] = assay: RNA sequencing of TRIB3 expression in wild type MEFs; assay type: cell-based, mouse; conditions: wild type MEFs receiving CBD treatment
Description: (§3) RNA sequencing is carried out wherein the RNA samples were extracted using TRIzol and kept in 75% ethanol in diethylpyrocarbonate (DEPC) water at −20° C. For each condition, two biological replicates were prepared for RNA sequencing. The RNA samples were dissolved in DEPC water and carried out quality control analysis. The RNA quantitation was done using Nanodrop™ and Agilent® 2100 Bioanalyzer. The RNA integrity was measured using Agilent® 2100 Bioanalyzer. The RNA purity was measured using agarose gel electrophoresis and Agilent® 2100 Bioanalyzer.
(§4) The samples that had concentration over 50 ng/μl for volume over 20 μl, RIN value over 6.3, and OD260/280 value over 2.0 were considered to pass the quality control analysis and were used for RNA sequencing. Illumina sequencing system was used for paired-end reads of read lengths PE150. 6 GB of raw data was acquired from each sample. […]
(§5) In the step of RNA sequencing, the RNA samples were extracted using TRIzol and kept in 75% ethanol in diethylpyrocarbonate (DEPC) water at −20° C. […] The RNA quantitation was done using Nanodrop™ and Agilent® 2100 Bioanalyzer. The RNA integrity was measured using Agilent® 2100 Bioanalyzer. The RNA purity was measured using agarose gel electrophoresis and Agilent® 2100 Bioanalyzer. […]

TRIB3 [2] = assay: RNA sequencing of TRIB3 expression in Lamin A 609 MEFs; assay type: cell-based, mouse; conditions: premature aging Lamin A 609 MEFs, CBD treatment
Description: as §3, §4, §5

nCoV virus = assay: nCoV infection of Huh7 cells, qPCR of viral gene copy number; assay type: cell-based
Description: (§6) To examine CBD inhibitory effects on nCoV infection, Huh7 cells were chosen. 2.0×10^5 cells/well of Huh7 cells were seeded to 24-well plate. The Huh7 cells were treated with DMSO as control, 2.5 μM, 5 μM or 10 μM CBD for 1 hour. The Huh7 cells were then infected with 0.01 MOI of nCoV virus for 1 hour. The inoculum was discarded and the plate was washed with 1 mL PBS twice. The Huh7 cells were then cultured in DMEM/F-12 and treated with DMSO as control, 2.5 μM, 5 μM or 10 μM CBD. After 2, 24 and 48 hours after infection, the supernatant and cell lysate were collected for qPCR analysis for determination of viral gene copy number.
as §6, with “In the step of examining CBD” for “To examine CBD”, “nCoV infection in” for “nCoV infection,”, “Huh7 cells,” for “Huh7 cells were chosen.”

SARS-Cov-2 pseudovirus = assay: Luciferase assay of SARS-Cov-2 pseudovirus infection of Caco2 cells; assay type: cell-based
Caco-2 cells = assay: Proliferation rate (PDL) of Caco-2 cells; assay type: cell-based, human; conditions: 5 μM CBD
Description: Referring to FIG. 8, which shown the proliferation rate of Caco-2 cells with CBD treatment. We have compared the population doubling level (PDL) of Caco-2 cells with CBD treatment at four different concentration, namely, 0 μM CBD, 5 μM CBD, 10 μM CBD, and 20 μM CBD. […] Therefore, the COVID-19 virus suppression effect observed in FIG. 7 was not caused by toxicity of CBD.

Caco2 cells = assay: KI67 expression in Caco2 cells; assay type: cell-based, human; conditions: 5 μM CBD
Description: Referring to FIG. 9, to confirm that the COVID-19 virus suppression effect observed in FIG. 7 was not caused by toxicity of CBD, we have analyzed the expression of KI67 with CBD treatment at the concentration of 5 μM CBD. […] It is confirmed that the COVID-19 virus suppression effect observed in FIG. 7 was not caused by toxicity of CBD.

TRIB3 [3] = assay: TRIB3 expression level in Caco-2 cells (FIG. 10); assay type: cell-based, human; conditions: Caco2 cells, CBD treatment (FIG. 10)
From the text: (§7) Referring to FIG. 10, we have further analyzed the mechanism of CBD treatment on Caco-2 cells by comparing the expression level of TRIB3 and AFT5 in Caco-2 cells by the CBD treatment. […] Similarly, ATF5 was also identified by the RNA sequencing results and it is closely associated with TRIB3.

ATF5 [4] = assay: ATF5 expression level in Caco-2 cells (FIG. 10); assay type: cell-based, human; conditions: Caco2 cells, CBD treatment (FIG. 10)
From the text: as §7

TRIB3 [5] = assay: TRIB3 expression in Caco2 cells by immunofluorescence staining (FIG. 11); assay type: cell-based, human; conditions: 5 μM CBD (FIG. 11)
From the text: (§8) Referring to FIG. 11, we have further analyzed the mechanism of CBD treatment on Caco-2 cells by comparing the expression level of TRIB3 and AFT5 in Caco2 cells by the CBD treatment. Compared to FIG. 10, we have measured the expression of TRIB3 and AFT5 by immunofluorescence staining.

ATF5 [6] = assay: ATF5 expression in Caco2 cells by immunofluorescence staining (FIG. 11); assay type: cell-based, human; conditions: 5 μM CBD (FIG. 11)
From the text: as §8

SARS-CoV-2 = assay: qPCR of viral gene copy in SARS-CoV-2 infected golden hamster; assay type: in vivo
From the text: Referring to FIG. 12, we tested the CBD's anti-COVID-19 effects in nasal turbinate of golden hamster by qPCR analysis of viral gene copy in nasal turbinate of SARS-CoV-2 infected golden hamster upon CBD treatment.

lung fibrosis = assay: Masson Trichrome staining of Covid-19 infected golden hamster lung; assay type: in vivo; conditions: lung of Covid-19 infected golden hamster, compared to control
From the text: Referring to FIG. 14, we have further tested CBD's anti-COVID-19 effects by analysis of Masson Trichrome staining of Covid-19 infected golden hamster lung treated with control or CBD.

LMNA^G609G/G609G mice = assay: CBD treatment in LMNA G609G/G609G mice (health span); assay type: in vivo, mouse; conditions: IP twice a week
Description: CBD was dissolved in 5% DMSO and 5% polyethylene glycol (PEG) in sterile saline and stored at −80° C. for up to 1 month. 2 months old LMNA^G609G/G609G mice were selected used. The mice then received an intraperitoneal injection (IP) twice a week until they reached the humane point.
In step of CBD treating in mice, 2 months old LMNA^G609G/G609G mice were selected and used. They received an intraperitoneal injection (IP) twice a week until they reached the humane point. Different dosages were used for the injection; 50 mg/kg of CBD was identified as the optimal dosage with the greatest extend in health span of the treated mice. CBD was dissolved in 5% DMSO and 5% polyethylene glycol (PEG) in sterile saline and stored at −80° C. for up to 1 month.

For Ivermectin, the “efficacy in treating COVID-19” value (Covid-19) is given as “not conclusive”.
In the case of `NC(=O)c1nc(F)c[nH]c1=O` [Favipiravir], the “efficacy in treating COVID-19” value (Covid-19) is given as “not conclusive”.
In the case of `C=C(C)[C@@H]1CCC(C)=C[C@H]1c1c(O)cc(CCCCC)cc1O` [CBD, Cannabidiol], the “population doubling level (PDL)” value (wild type MEFs; high dosage 50 μM CBD) is reported as “significantly decreased”, the “population doubling level (PDL)” value (wild type MEFs; optimal dosage 10 μM CBD) is reported as “significantly increased” and the “population doubling level (PDL)” value (Lamin A 609 MEFs; high dosage 50 μM CBD) is reported as “significantly decreased”. For the same molecule, the “population doubling level (PDL)” value (Lamin A 609 MEFs; optimal dosage 10 μM CBD) was “significantly increased”, the “TRIB3 expression (fpkm, RNA sequencing)” value (TRIB3 [1]) was “upregulated” and the “expression levels of TRIB3 (RNA sequencing)” value (TRIB3 [2]) was “increase”. For the same molecule, the “nCoV virus infection (viral gene copy number in cell lysate and supernatant)” value (nCoV virus; Huh7 cells, 2.5, 5 or 10 μM CBD, 0.01 MOI, 2, 24 and 48 hours after infection) was “inhibited”, the “optimal dosage of CBD” value (nCoV virus; Huh7 cells, inhibition of nCoV infection) was 5 µM and the “reduction of SARS-Cov-2 pseudovirus infection” value (SARS-Cov-2 pseudovirus) was 72%. For the same molecule, the “proliferation of Caco-2 cells shown by population doubling level (PDL)” value (Caco-2 cells) was “didn't affect proliferation”, the “proliferation of Caco2 cells shown by KI67” value (Caco2 cells) was “didn't affect proliferation” and the “expression level of TRIB3” value (TRIB3 [3]) was “significantly upregulate”. For the same molecule, the “expression level of ATF5” value (ATF5 [4]) was “significantly upregulate”, the “TRIB3 level of expression, immunofluorescence staining” value (TRIB3 [5]) was “increased” and the “ATF5 level of expression, immunofluorescence staining” value (ATF5 [6]) was “increased”. For the same molecule, the “SARS-Cov-2 infection (viral gene copy) in lung” value (SARS-CoV-2; lung) was “suppress”, the “SARS-CoV-2 infection (viral gene copy) in nasal turbinate” value (SARS-CoV-2; nasal turbinate) was “reduced” and the “area and intensity of blue stain (fibrosis), Masson Trichrome staining” value (lung fibrosis) was “significantly lowered”. The “optimal dosage with the greatest extend in health span” value (LMNA^G609G/G609G mice) was 50 mg/kg.
In the case of Lopinavir-ritonavir, the “efficacy in treating COVID-19” value (Covid-19) is listed as “not conclusive”.
